Experiments:
hNatB = hNatB (Homo sapiens, UniProt P61599); test: […] acetyltransferase assay with and without IP6; assay type: biochemical; settings: 2 μM IP6, 50 μM Ac-CoA, 50 μM MDVF peptide, pH 7.0, room temperature
SpNatA = biological target: T1, SpNatA (Schizosaccharomyces pombe, UniProt O74985+Q9UTI3); test: […] acetyltransferase assay with and without IP6; assay type: biochemical; settings: 2 μM IP6, 50 μM Ac-CoA, 50 μM SASE peptide, pH 7.0, room temperature
T1 sequence (Q9UTI3 1-156): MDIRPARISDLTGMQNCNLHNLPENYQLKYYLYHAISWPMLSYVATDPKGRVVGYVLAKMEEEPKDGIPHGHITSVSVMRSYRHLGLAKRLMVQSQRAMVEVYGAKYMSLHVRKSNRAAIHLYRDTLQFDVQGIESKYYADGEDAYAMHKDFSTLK
T1 sequence (O74985 1-729): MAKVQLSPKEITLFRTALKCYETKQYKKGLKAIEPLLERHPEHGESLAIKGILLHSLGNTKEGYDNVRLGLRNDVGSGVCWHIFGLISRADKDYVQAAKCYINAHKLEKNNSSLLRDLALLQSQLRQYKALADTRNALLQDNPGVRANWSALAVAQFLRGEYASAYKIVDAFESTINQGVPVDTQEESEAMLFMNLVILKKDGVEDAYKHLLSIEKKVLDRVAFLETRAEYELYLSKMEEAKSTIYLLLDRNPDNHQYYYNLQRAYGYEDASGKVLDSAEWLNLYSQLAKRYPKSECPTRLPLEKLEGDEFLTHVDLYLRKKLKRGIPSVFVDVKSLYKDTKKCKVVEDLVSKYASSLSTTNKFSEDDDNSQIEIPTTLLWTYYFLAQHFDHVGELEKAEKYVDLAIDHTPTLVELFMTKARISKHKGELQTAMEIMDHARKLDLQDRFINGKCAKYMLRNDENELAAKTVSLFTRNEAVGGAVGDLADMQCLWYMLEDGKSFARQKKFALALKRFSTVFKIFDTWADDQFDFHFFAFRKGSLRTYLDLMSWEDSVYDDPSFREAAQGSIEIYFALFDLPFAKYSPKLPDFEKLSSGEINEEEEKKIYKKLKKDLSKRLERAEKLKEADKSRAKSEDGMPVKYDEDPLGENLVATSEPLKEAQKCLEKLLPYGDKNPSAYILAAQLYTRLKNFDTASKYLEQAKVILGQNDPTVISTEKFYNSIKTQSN

ternary SpNatC = biological target: T2, ternary SpNatC (Schizosaccharomyces pombe, UniProt O74311+Q9USY3); test: isothermal titration calorimetry; assay type: binding
T2 sequence (O74311 1-150): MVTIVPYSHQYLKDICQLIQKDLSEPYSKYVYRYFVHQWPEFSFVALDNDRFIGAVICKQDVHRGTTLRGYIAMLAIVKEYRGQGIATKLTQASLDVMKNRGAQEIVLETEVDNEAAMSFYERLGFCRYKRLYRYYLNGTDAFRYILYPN
T2 sequence (Q9USY3 31-708): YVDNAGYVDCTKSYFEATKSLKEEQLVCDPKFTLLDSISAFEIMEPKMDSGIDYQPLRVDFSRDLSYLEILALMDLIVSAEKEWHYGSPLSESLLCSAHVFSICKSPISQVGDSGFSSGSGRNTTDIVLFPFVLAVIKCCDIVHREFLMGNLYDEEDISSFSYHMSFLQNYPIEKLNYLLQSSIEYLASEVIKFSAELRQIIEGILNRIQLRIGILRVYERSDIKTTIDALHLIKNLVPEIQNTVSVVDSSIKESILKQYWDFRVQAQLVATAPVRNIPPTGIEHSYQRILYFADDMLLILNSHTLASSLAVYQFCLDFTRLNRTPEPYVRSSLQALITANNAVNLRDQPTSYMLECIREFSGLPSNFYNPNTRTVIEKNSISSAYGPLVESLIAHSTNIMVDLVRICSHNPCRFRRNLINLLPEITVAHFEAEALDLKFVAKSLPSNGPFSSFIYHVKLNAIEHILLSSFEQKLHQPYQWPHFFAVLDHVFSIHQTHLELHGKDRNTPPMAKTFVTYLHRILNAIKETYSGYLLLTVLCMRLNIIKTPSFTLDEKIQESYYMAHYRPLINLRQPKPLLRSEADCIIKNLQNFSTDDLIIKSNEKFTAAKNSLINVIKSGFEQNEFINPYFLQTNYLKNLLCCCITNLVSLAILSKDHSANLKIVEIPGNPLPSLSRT
T2 sequence (O43080 4-72 partner limits assumed): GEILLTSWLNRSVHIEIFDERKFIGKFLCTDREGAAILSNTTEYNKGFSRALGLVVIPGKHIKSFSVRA

Sequence of hNatB (P61599 1-163): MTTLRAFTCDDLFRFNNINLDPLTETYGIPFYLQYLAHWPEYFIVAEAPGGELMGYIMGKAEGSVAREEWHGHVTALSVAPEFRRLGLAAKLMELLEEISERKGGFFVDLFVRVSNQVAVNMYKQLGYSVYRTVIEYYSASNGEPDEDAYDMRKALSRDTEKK
Sequence of hNatB (Q14CX7 whole entry partner): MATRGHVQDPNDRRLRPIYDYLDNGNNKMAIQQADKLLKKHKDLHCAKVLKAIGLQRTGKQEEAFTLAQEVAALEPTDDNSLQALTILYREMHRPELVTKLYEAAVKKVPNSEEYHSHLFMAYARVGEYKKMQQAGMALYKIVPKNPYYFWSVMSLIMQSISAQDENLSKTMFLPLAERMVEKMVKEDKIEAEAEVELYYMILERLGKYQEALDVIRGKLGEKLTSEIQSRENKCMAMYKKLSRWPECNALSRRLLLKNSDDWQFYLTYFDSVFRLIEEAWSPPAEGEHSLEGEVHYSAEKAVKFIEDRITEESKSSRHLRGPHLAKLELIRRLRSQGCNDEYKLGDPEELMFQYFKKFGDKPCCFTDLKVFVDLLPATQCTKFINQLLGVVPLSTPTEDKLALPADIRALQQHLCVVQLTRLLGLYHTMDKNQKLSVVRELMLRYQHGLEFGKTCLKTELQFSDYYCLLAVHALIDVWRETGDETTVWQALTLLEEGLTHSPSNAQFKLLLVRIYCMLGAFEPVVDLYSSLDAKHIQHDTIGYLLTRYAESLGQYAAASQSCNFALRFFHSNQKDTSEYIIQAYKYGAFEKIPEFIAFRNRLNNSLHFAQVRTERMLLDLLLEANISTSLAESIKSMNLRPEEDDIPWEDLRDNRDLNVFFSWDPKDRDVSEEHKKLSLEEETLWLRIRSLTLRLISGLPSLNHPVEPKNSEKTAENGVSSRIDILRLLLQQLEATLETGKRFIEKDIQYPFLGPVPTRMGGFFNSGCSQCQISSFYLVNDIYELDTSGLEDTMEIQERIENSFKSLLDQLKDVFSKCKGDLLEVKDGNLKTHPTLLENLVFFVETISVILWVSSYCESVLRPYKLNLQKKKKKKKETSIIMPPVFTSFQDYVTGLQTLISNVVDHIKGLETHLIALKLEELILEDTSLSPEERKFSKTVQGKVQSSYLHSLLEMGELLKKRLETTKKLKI

Kd (ternary SpNatC): ~0.225 µM
Structure (SMILES): O=P(O)(O)O[C@H]1[C@H](OP(=O)(O)O)[C@@H](OP(=O)(O)O)[C@H](OP(=O)(O)O)[C@@H](OP(=O)(O)O)[C@H]1OP(=O)(O)O [IP6, inositol hexaphosphate]
modest inhibition at 2 μM (hNatB): produced a relatively modest inhibitory effect, as it also did for SpNatA and hNatB
modest inhibition at 2 μM (SpNatA): produced a relatively modest inhibitory effect, as it also did for SpNatA and hNatB

Reference: publication PMC8500922 (Structure (London, England : 1993), 2021)
